# Data published in patent US9855220B2, “Methods of treating pancreatic cancer” (priority 2013, dated 2018).
# Tests used:
# [1] = system: patients with locally advanced pancreatic cancer; conditions: cited from earlier work
# [2] = system: patients with metastatic adenocarcinoma of the pancreas; assay: MPACT phase 3 study: overall survival; assay type: in vivo, human; conditions: for median overall survival: intent-to-treat population; for Median OS 95% CI (months): intent-to-treat
# Source text: (§1) Patients who had not experienced disease progression were followed with regularly scheduled spiral CT/MRI scans every 8 weeks in both arms. Patients were followed for survival until death or study closure.
# The 1:1 randomization was stratified by: (1) Karnofsky performance status (PS) (70-80 versus 90-100); (2) Region (Australia, North America, Eastern/Western Europe); (3) Presence of liver metastasis (Yes vs. No).
# (§2) The primary efficacy endpoint was overall survival (OS). Secondary efficacy endpoints were progression-free survival (PFS) (measured by blinded, independent radiology assessments done at 8 weeks), objective tumor response according to Response Evaluation Criteria in Solid Tumors (RECIST v. 1.0) based on Spiral computed tomography (CT) scans/magnetic resonance imaging (MRI). Other endpoints included were progression-free survival and objective response rate (ORR) by investigator review, disease control rate (DCR), time to failure (TTF), and safety/tolerability by National Cancer Institute Common Terminology Criteria for Adverse Events v. 3.0 (NCI CTCAE).
# (§3) The sample size was increased prior to the interim analysis to increase the power from 80% to 90% (842 patients, 608 events) to detect a hazard ratio (HR) of 0.769 (2-sided α:0.049). 1 interim survival analysis was planned for futility. The intent-to-treat (ITT) population was evaluated for efficacy, the treated population for safety. Treatment differences in overall survival and progression-free survival were tested using stratified log-rank; objective response rates were tested using the chi-squared test.
# [3] = system: patients with metastatic adenocarcinoma of the pancreas; assay: MPACT phase 3 study: progression-free survival (independent radiological review, investigator review); assay type: in vivo, human; conditions: for Progression-free rate (%): independent radiological review
# Experimental: (§4) The primary efficacy endpoint was overall survival (OS). […] 3.0 (NCI CTCAE).
# (§5) 1 interim survival analysis was planned for futility.
# (§6) Study endpoints were determined by analyzing the following criteria: (1) changes in serum CA 19-9 levels; (2) changes in plasma SPARC (secreted protein, acidic and rich in cysteine) levels; (3) time and duration of response (using RECIST v. 1.0); (4) disease control rate based on objective response or stable disease ≧16 weeks; (5) time to treatment failure; (6) progression-free survival and overall response rate by investigator; and (7) tumor response by PET scans using EORTC criteria and blinded radiology assessments. When assessing study endpoints, researchers examined correlations between objective tumor response as determined by CT and PET scans, molecular marker expression and efficacy, and objective tumor response as determined by PET, progression-free survival, CA 19-9 levels, SPARC levels and overall survival.
# [4] = system: patients with metastatic adenocarcinoma of the pancreas; assay: MPACT phase 3 study: objective tumor response and disease control rate (RECIST v. 1.0); assay type: in vivo, human
# Experimental: as §4, §5, §6
# [5] = system: patients with metastatic adenocarcinoma of the pancreas; assay: MPACT phase 3 study: time to treatment failure; assay type: in vivo, human
# Experimental: as §4, §6
# [6] = system: patients with metastatic adenocarcinoma of the pancreas
# Source text: as §1, §2, §3
# [7] = system: patients with metastatic adenocarcinoma of the pancreas; assay type: in vivo
# Source text: as §1
# pancreatic cancer = conditions: in vivo; cited from earlier work
# [8] = best response by blinded assessment
# [9] = best response by blinded assessment / independent review
# [10] = independent radiological review
# [11] = treated population, N = 421 vs N = 402
# [12] = number of patients (% of arm), N = 431 vs N = 430
smiles,measurement,setting,value
"O=c1[nH]cc(F)c(=O)[nH]1 [5-FU, 5-fluororuracil]",median overall survival,[1],4.2 months
same,median time to disease progression,[1],0.9 months
"Nc1ccn([C@@H]2O[C@H](CO)[C@@H](O)C2(F)F)c(=O)n1 [Gemcitabine, gemcitabine]","Patients Died, %",[2]; ITT,(83%)
same,"Median OS, sensitivity analysis",[2]; censor at time of 2nd line therapy,6.8 Months
same,median overall survival,[2],6.7 (6.01-7.23) months
same,median overall survival,[2]; listed as gemcitabine,6.7 months
same,Median OS 95% CI (months),[2]; subgroup Geographic Region: Eastern Europe,"5.9 (4.67, 7.46) months"
same,Median OS 95% CI (months),[2]; subgroup Geographic Region: North America,"6.8 (6.01, 7.52) months"
same,Median OS 95% CI (months),[2]; subgroup Geographic Region: Western Europe,"6.9 (5.09, —)^ months"
same,Median OS 95% CI (months),[2]; subgroup Pancreatic Cancer Primary Location: Head,"6.5 (5.55, 7.29) months"
same,Median OS 95% CI (months),[2]; subgroup Pancreatic Cancer Primary Location: Other,"6.9 (5.98, 7.52) months"
same,% survival,[2]; time point 6 month,55%
same,% survival,[2]; time point 9 month,36%
same,% survival,[2]; time point 12 month (1-year survival rate),22%
same,% survival,[2]; time point 18 month,9%
same,% survival,[2]; time point 24 month (2-year survival rate),4%
same,"N/Events, PFS by independent radiological review",[3]; ITT,430/265
same,Median Progression-Free Survival by independent radiological review,[3]; ITT population,3.7 months
same,Progression-free rate (%),[3]; at 6 month,25%
same,Progression-free rate (%),[3]; at 9 month,14%
same,Progression-free rate (%),[3]; at 12 month,9%
same,Progression-free rate (%),[3]; at 15 month,9%
same,Median Progression-Free Survival by investigator review,[3]; in vivo,3.5 months
same,"N/Events, PFS by investigator review",[3]; in vivo,430/348
same,"Not evaluable, %",[4]; [8],39%
same,"Progressive Disease, %",[4]; [8],26%
same,"Stable Disease, %",[4]; [8],28%
same,"Complete Response, %",[4]; [9],0%
same,"Partial Response, %",[4]; [9],7%
same,"ORR, blinded (independent radiological) assessment","[4]; confirmed complete or partial response, ITT",7%
same,"ORR, investigator assessment",[4]; in vivo,8%
same,"Stable Disease ≧16 weeks, %",[4]; independent review,26%
same,DCR (disease control rate) by independent review,[4]; objective response or stable disease ≧16 weeks,33%
same,Median TTF,[5]; [10],3.6 months
same,"Patients with Treatment Failure, %",[5]; [10],94%
same,"Patients Censored, %",[5]; time to treatment failure analysis,6%
same,"Febrile Neutropenia (any grade), %","[6]; human, in vivo",1%
same,"Grade ≧3 Anemia, %","[6]; human, in vivo",12%
same,"Grade ≧3 Diarrhea, %","[6]; human, in vivo",2%
same,"Grade ≧3 Fatigue, %","[6]; human, in vivo",7%
same,"Grade ≧3 Leukopenia, %","[6]; human, in vivo",16%
same,"Grade ≧3 Neuropathy, Time to Improvement by 1 grade, median","[6]; human, in vivo",29 days
same,"Grade ≧3 Neuropathy, Time to Onset, median","[6]; human, in vivo",113 days
same,"Grade ≧3 Neutropenia, %","[6]; human, in vivo",27%
same,"Grade ≧3 Peripheral neuropathy, %","[6]; human, in vivo",<1%
same,"Grade ≧3 Thrombocytopenia, %","[6]; human, in vivo",9%
same,"Myelosuppression: ANC, NCI CTCAE Grade 3","[6]; human, in vivo",82 (21) n (%)
same,"Myelosuppression: ANC, NCI CTCAE Grade 4","[6]; human, in vivo",21 (5) n (%)
same,"Myelosuppression: Hemoglobin, NCI CTCAE Grade 3","[6]; human, in vivo",42 (11) n (%)
same,"Myelosuppression: Hemoglobin, NCI CTCAE Grade 4","[6]; human, in vivo",6 (2) n (%)
same,"Myelosuppression: Platelet Count, NCI CTCAE Grade 3","[6]; human, in vivo",28 (7) n (%)
same,"Myelosuppression: Platelet Count, NCI CTCAE Grade 4","[6]; human, in vivo",8 (2) n (%)
same,Subjects with at least one AE with Action of Study Drug Permanently Discontinued,"[6]; human, in vivo",95 (24%) n (%)
same,Treatment Emergent AEs Resulting in Treatment Discontinuation: Blood & Lymphatic,"[6]; human, in vivo",16 (4%) n (%)
same,Treatment Emergent AEs Resulting in Treatment Discontinuation: Gastrointestinal disorders,"[6]; human, in vivo",22 (5%) n (%)
same,Treatment Emergent AEs Resulting in Treatment Discontinuation: General Disorders/Administration Site Condition,"[6]; human, in vivo",18 (4%) n (%)
same,Treatment Emergent AEs Resulting in Treatment Discontinuation: Infections and infestations,"[6]; human, in vivo",11 (3%) n (%)
same,Treatment Emergent AEs Resulting in Treatment Discontinuation: Nervous System,"[6]; human, in vivo",7 (2%) n (%)
same,"Treatment Emergent AEs Resulting in Treatment Discontinuation: Respiratory, Thoracic and mediastinal disorders","[6]; human, in vivo",15 (4%) n (%)
same,Treatment-Emergent Grade 3 or Higher AE: Abdominal pain,"[6]; human, in vivo",32 (8%)
same,Treatment-Emergent Grade 3 or Higher AE: Anemia,"[6]; human, in vivo",32 (8%)
same,Treatment-Emergent Grade 3 or Higher AE: Asthenia,"[6]; human, in vivo",17 (4%)
same,Treatment-Emergent Grade 3 or Higher AE: Dehydration,"[6]; human, in vivo",10 (2%)
same,Treatment-Emergent Grade 3 or Higher AE: Diarrhea,"[6]; human, in vivo",6 (1%)
same,Treatment-Emergent Grade 3 or Higher AE: Fatigue,"[6]; human, in vivo",37 (9%)
same,Treatment-Emergent Grade 3 or Higher AE: Leukopenia,"[6]; human, in vivo",15 (4%)
same,Treatment-Emergent Grade 3 or Higher AE: Nausea,"[6]; human, in vivo",14 (3%)
same,Treatment-Emergent Grade 3 or Higher AE: Neutropenia,"[6]; human, in vivo",85 (21%)
same,Treatment-Emergent Grade 3 or Higher AE: Peripheral neuropathy,"[6]; human, in vivo",3 (1%)
same,Treatment-Emergent Grade 3 or Higher AE: Pulmonary Embolism,"[6]; human, in vivo",26 (6%)
same,Treatment-Emergent Grade 3 or Higher AE: Thrombocytopenia,"[6]; human, in vivo",33 (8%)
same,Treatment-Emergent Grade 3 or Higher AE: Vomiting,"[6]; human, in vivo",15 (4%)
same,"Pt with at least 1 AE leading to death, %",[6]; treated population,4%
same,Subject with at Least 1 Treatment Related AE with Outcome of Death,[6]; [11],18 (4%) n (%)
same,Treatment Emergent AEs with Outcome of Death: Cardiac Disorders,[6]; [11],3 (1%) n (%)
same,Treatment Emergent AEs with Outcome of Death: Gastrointestinal disorders,[6]; [11],3 (1%) n (%)
same,Treatment Emergent AEs with Outcome of Death: General disorders and administration site conditions,[6]; [11],3 (1%) n (%)
same,Treatment Emergent AEs with Outcome of Death: Hepatobiliary disorders,[6]; [11],1 (<1%) n (%)
same,Treatment Emergent AEs with Outcome of Death: Infections and infestations,[6]; [11],3 (1%) n (%)
same,Treatment Emergent AEs with Outcome of Death: Neoplasm Progression,[6]; [11],2 (<1%) n (%)
same,Treatment Emergent AEs with Outcome of Death: Nervous system disorders,[6]; [11],2 (<1%) n (%)
same,Treatment Emergent AEs with Outcome of Death: Renal and urinary disorders,[6]; [11],1 (<1%) n (%)
same,"Treatment Emergent AEs with Outcome of Death: Respiratory, thoracic and mediastinal disorders",[6]; [11],3 (1%) n (%)
same,"Patients with ≧1 Dose Reduction, %: gemcitabine",[7]; gemcitabine component,33%
same,Reason for Therapy Discontinuation: Adverse Events,[7]; [12],73 (17%)
same,Reason for Therapy Discontinuation: Adverse Events Related to Study Drug,[7]; [12],29 (7%)
same,Reason for Therapy Discontinuation: Progressive Disease,[7]; [12],245 (57%)
same,median overall survival,[1],5.7 months
same,median time to disease progression,[1],2.1 months
same,median overall survival,pancreatic cancer,6.0 months
same,median progression free survival,pancreatic cancer,3.5 months
